{
  "source": "patent US8481483B2",
  "about": "“Cyclosporin analogues” (priority 2009, dated 2013)",
  "origin": "cited, not measured here",
  "key": {"[1]": {"system": "hepatitis C virus replication", "settings": "Antiviral Research 65(3):A41 (2005)"}, "[2]": {"biological_target": "cyclophilin A (Homo sapiens, UniProt P62937)", "sequence (P62937 whole entry, species assumed)": "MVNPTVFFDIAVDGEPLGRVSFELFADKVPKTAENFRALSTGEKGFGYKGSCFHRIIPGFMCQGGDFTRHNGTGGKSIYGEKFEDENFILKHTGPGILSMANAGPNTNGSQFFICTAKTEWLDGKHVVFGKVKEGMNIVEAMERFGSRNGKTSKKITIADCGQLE"}},
  "data": [
    {"smiles": "C/C=C/C[C@@H](C)[C@@H](O)[C@H]1C(=O)N[C@@H](CC)C(=O)N(C)[C@H](C)C(=O)N(CC)[C@@H](C(C)C)C(=O)N[C@@H](C(C)C)C(=O)N(C)[C@@H](CC(C)C)C(=O)N[C@@H](C)C(=O)N[C@H](C)C(=O)N(C)[C@@H](CC(C)C)C(=O)N(C)[C@@H](CC(C)C)C(=O)N(C)[C@@H](C(C)C)C(=O)N1C", "note": "[DEBIO-025]", "values": [
      {"measurement": "inhibition of hepatitis C virus replication", "setting": "[1]", "result": "potent and selective inhibition"},
      {"measurement": "binding affinity for cyclophilin A", "setting": "[2]", "result": "potent binding affinity"}
    ]}
  ]
}
